# Assay results reported in patent publication US20070166367A1, “Adept or gdept producing acetaldehyde” (priority 2004, published 2007).
# Where two headings read alike, the source gives them in different places.
# What was measured:
# [1] = test system: CaCo-2 (Human colorectal cancer cells); settings: cited from earlier work; for Doubling Time: 72 hrs
# [2] = test system: CMT-64; experiment: in vitro acetaldehyde and cisplatin toxicity assay; type: cell-based
# Protocol: (§1) Standard tissue culture techniques were used to maintain Hela, Daudi, Jurkat, CMT-64 cells in flasks in DMEM+10% FCS in a 37° C. incubator.
# (§2) Cell lines subcloned into 25-cm^2 flasks and incubated in media containing dilutions of acetaldehyde, cisplatin or both. Flasks remained sealed during incubation and the media and acetaldehyde/cisplatin were replaced daily. Viable cell counts were made using Trypan blue exclusion and a standard haemocytometer.
# [3] = test system: Daudi; experiment: in vitro acetaldehyde and cisplatin toxicity assay; type: cell-based
# Protocol: as §1, §2
# [4] = in vitro acetaldehyde and cisplatin toxicity assay; type: cell-based; settings: human, Daudi cells; higher concentrations (500 uM and 1 mM), day 3, FIG. 1; read-out: viable cell numbers as % of starting number
# Protocol: as §1, §2
# [5] = during alcohol metabolism; cited from earlier work
# [6] = test system: Hela; experiment: in vitro acetaldehyde toxicity assay; type: cell-based; settings: 250 uM acetaldehyde
# Protocol: as §1, §2
structure (smiles),measurement,setting,value
CC=O [acetaldehyde],Cytotoxicity,[1]; 500 μM and 1000 μM acetaldehyde for 72 hrs,No significant effects.
same,Doubling Time,[1]; 500 μM,150 % of control
same,Doubling Time,[1]; 1000 μM,270 % of control
same,concentrations at which significant growth inhibition occurred,[2],over 500 uM
same,effect on proliferation,[2]; 250 uM acetaldehyde,reduction in the rate of proliferation
same,cell number as % of starting number,[2]; FIG. 2,170%
same,effect on proliferation,[3]; 250 uM acetaldehyde,reduction in the rate of proliferation
same,cell number as % of starting number,"[3]; higher cell density, 3 days exposure, FIG. 2",67%
same,viability at 3 days,[4],37%
same,levels in the liver,[5],~100 µM
same,effect on proliferation,[6],reduction in the rate of proliferation
